Test results reported in PMC5322940 (Cell, 2016).

What was measured:
WT CB1 = WT CB1 (Homo sapiens, UniProt P21554); test: Wash out experiment followed by [3H]-CP55,940 saturation binding
hCB1R [1] = target: T1, hCB1R (Homo sapiens, UniProt P21554); assay type: cell-based
[2] = test system: hCB1 Phe170^2.57Ala or Phe174^2.61Ala; test: Functional studies in mutant hCB1-CHO cells, Phe170Ala or Phe174Ala; assay type: cell-based, human
hCB1 WT receptor = hCB1 WT receptor (Homo sapiens, UniProt P21554); test: biochemical; assay type: binding
Chain of hCB1 WT receptor (P21554 whole entry): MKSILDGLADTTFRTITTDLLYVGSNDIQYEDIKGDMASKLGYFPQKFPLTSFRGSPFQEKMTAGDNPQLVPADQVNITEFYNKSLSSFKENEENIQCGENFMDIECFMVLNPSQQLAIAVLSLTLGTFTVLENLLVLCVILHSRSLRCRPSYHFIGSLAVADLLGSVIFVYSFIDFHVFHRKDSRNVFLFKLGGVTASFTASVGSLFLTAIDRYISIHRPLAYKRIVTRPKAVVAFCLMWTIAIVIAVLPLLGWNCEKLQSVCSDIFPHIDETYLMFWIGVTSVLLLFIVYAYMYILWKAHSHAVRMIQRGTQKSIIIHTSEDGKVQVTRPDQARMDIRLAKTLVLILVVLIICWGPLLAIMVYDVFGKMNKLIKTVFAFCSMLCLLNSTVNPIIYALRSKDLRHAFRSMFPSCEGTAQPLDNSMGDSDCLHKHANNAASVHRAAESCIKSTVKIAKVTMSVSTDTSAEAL

hCB1R [3] = target: T1, hCB1R; assay type: cell-based; remark: listed apart in the source
CB1 [4] = target: CB1 (Mus musculus, UniProt P47746); test: [35S]GTPγS binding to CB1 in C57 mouse cerebellum membranes; assay type: biochemical
Chain of CB1 (Mus musculus, UniProt P47746) (P47746 whole entry): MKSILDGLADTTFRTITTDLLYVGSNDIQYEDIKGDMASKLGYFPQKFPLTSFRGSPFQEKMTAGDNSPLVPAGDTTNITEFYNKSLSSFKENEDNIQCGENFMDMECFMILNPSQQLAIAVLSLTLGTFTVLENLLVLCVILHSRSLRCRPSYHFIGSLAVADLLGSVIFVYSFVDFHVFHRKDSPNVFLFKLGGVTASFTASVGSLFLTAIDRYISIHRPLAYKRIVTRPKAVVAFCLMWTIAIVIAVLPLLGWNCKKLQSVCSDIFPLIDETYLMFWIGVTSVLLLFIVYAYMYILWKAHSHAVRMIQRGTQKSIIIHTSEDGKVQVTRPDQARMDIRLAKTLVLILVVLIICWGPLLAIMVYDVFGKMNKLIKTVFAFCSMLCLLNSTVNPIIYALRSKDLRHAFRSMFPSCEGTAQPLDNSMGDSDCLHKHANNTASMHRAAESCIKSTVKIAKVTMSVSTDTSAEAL

CB1 [5] = details: cited from earlier work
[6] = test system: hCB1 Phe170^2.57Trp or Phe174^2.61Trp; test: Functional studies in mutant hCB1-CHO cells, Phe170Trp or Phe174Trp; assay type: cell-based, human; details: Phe170Ala/Trp or Phe174Ala/Trp vs WT
[7] = agonist, mouse cerebellum, mean ± S.E.M.

T1 sequence (P21554 whole entry): as the sequence (P21554 whole entry) above
Chain of WT CB1 (P21554 whole entry): as above

Cc1c(C(=O)NN2CCCCC2)nn(-c2ccc(Cl)cc2Cl)c1-c1ccc(C#CCCO[N+](=O)[O-])cc1 [AM6538, 4-(4-(1-(2,4-dichlorophenyl)-4-methyl-3-(piperidin-1-ylcarbamoyl)-1H-pyrazol-5-yl)phenyl)but-3-yn-1-yl nitrate]
Effect on subsequent [3H]-CP55,940 binding after pretreatment and washout (WT CB1): wash-resistant binding
Mode of antagonism of CB1-mediated inhibition of adenylyl cyclase activity (hCB1R [1]): competitive antagonist
Effect of mutation on antagonist functional affinity [2]: dramatically reduced functional affinity
Ki (hCB1 WT receptor): 3.4 ± 1 nM
Percentage of remaining binding (Bmax) of [3H]-CP55,940 (hCB1 WT receptor): ~ 30%
Mode of antagonism of β-arrestin2 recruitment (hCB1R [3]): competitive antagonist
Mode of antagonism of [35S]-GTPγS binding (CB1 [4]): Competitive antagonism was confirmed

Cc1c(C(=O)NN2CCS(=O)(=O)CC2)nn(-c2ccc(Cl)cc2Cl)c1-c1ccc(C#CCCC#N)cc1 [AM6545]
Affinity and mode of action at CB1 (CB1 [5]; ref Tam et al., 2010): high affinity CB1 neutral antagonist

CCCCCCC(C)(C)c1ccc([C@@H]2C[C@H](O)CC[C@H]2CCCO)c(O)c1 [CP55,940]
Effect of mutation on agonist potency ([2]; Phe170Ala or Phe174Ala vs WT): neither mutation alters the potency
Effect of mutation on agonist potency [6]: do not alter the potency
EC50 (CB1 [4]; [7]): 63 ± 5.5 nM
Emax (CB1 [4]; [7]): 2.40 ± 0.04 fold over baseline

C[C@H](NC(=O)C(C)(C)Oc1ccc(C(F)(F)F)cn1)[C@@H](Cc1ccc(Cl)cc1)c1cccc(C#N)c1 [Taranabant]
Affinity with CB1 (CB1 [5]; among rimonabant, otenabant and taranabant, ref Table S2): highest affinity

Cc1c(C(=O)NN2CCCCC2)nn(-c2ccc(Cl)cc2Cl)c1-c1ccc(Cl)cc1 [rimonabant]
Effect of mutation on antagonist functional affinity [2]: dramatically reduced functional affinity
